Test results published in US20260334439A1, “BCAT2 INHIBITORS” (Agios Pharmaceuticals, Inc., priority 2023, published 2026).

Columns and labels:
BCAT2 [1] = biological target: T1, BCAT2 (Homo sapiens, UniProt O15382); test: BCAT2 in vitro enzyme inhibition assay (hBCAT2, glutamate dehydrogenase/diaphorase/resazurin coupled fluorescence read); type: biochemical; conditions: hBCAT2, 1 h preincubation at 25° C., one hour reaction; average where tested multiple times
T1 sequence (O15382 28-392): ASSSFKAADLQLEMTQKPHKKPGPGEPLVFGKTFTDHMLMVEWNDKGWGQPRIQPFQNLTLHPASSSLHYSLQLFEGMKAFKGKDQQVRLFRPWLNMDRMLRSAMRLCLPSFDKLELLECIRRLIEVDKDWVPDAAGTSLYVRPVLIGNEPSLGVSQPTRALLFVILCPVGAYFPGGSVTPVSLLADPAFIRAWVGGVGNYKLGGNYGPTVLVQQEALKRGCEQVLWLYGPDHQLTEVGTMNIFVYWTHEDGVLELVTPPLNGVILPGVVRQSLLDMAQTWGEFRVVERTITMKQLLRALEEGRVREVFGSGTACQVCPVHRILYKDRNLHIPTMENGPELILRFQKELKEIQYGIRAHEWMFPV
Summary of the method: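 hBCAT2 (0.33 μg/mL in mix) preincubated 1 h at 25 °C with compound (top 100 μM, 3-fold, 10 points) in Tris pH 8.0/NaCl/BSA; substrate mix added (L-leucine, α-ketoglutarate, GDH, NAD, diaphorase, resazurin), quenched with SDS after 1 h, fluorescence Ex 540/Em 590; duplicates, repeat tests averaged.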

BCAT2 [2] = biological target: T1, BCAT2; test: BCAT2 cell inhibition using engineered A549 cells (MUT KO, BCAT1 KO; 13C6-KMV formation by LC-MS/MS); type: cell-based; set-up: expressed endogenous BCAT2; endogenous in cells; host or cells: A549 cells, MUT knockout and BCAT1 knockout
Summary of the method: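 Medium 13C6-KMV formation is read by LC-MS/MS after PFBHA derivatization with d8-KMV internal standard. Cells are CRISPR MUT/BCAT1 double-knockout A549 expressing endogenous BCAT2, given compound 15 min before labelled isoleucine (800 uM, added 1:1) for 24 h. CTG viability run in parallel; replicates averaged.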

SMILES	IC50 (BCAT2 [1]) [nM]	IC50 (BCAT2 [2]) [nM]	IC50 (BCAT2 [2]; read-out: BCAT2 Cell Inhibition (IC50), engineered A549 cells, 24 hours, 13C6-KMV in media, average where tested multiple times) [nM]
O=C(N[C@H]1CCC[C@@H](n2c(-c3ccccc3OC(F)F)nc3cnc(-c4nc[nH]n4)cc32)C1)c1cc(Cl)ccc1O [compound 69]	< 100	< 100	
CC(C)Oc1ccc(Cl)cc1C(=O)N[C@H]1CCC[C@@H](n2c(-c3ccccc3F)nc3cnc(-c4nc[nH]n4)cc32)C1 [Example 18, 5-chloro-N-((1S,3R)-3-(2-(2-fluorophenyl)-6-(1H-1,2,4-triazol-3-yl)-1H-imidazo[4,5-c]pyridin-1-yl)cyclohexyl)-2-isopropoxybenzamide]	< 100	< 100	
O=C(N[C@H]1CCC[C@@H](n2c(-c3ccccc3F)nc3cnc(-c4ncn(C(F)F)n4)cc32)[C@@H]1O)c1cc(Cl)ccn1 [compound 118]	< 100	< 100	
O=C1c2cc(F)ccc2CCN1[C@H]1CCC[C@@H](n2c(-c3ccccc3F)nc3cnc(-c4nc[nH]n4)cc32)C1 [Example 212, 7-fluoro-2-((1S,3R)-3-(2-(2-fluorophenyl)-6-(1H-1,2,4-triazol-3-yl)-1H-imidazo[4,5-c]pyridin-1-yl)cyclohexyl)-3,4-dihydroisoquinolin-1(2H)-one]	< 100	< 100	
CCOc1ccc(Cl)cc1C(=O)N[C@H]1CCC[C@@H](n2c(-c3ncccc3F)nc3cnc(-c4nc[nH]n4)cc32)C1 [Example 27, 5-chloro-2-ethoxy-N-((1S,3R)-3-(2-(3-fluoropyridin-2-yl)-6-(1H-1,2,4-triazol-3-yl)-1H-imidazo[4,5-c]pyridin-1-yl)cyclohexyl)benzamide]	< 100	< 100	

Continued, values first:

IC50 (BCAT2 [1]) [nM]	IC50 (BCAT2 [2]) [nM]	IC50 (BCAT2 [2]; read-out: BCAT2 Cell Inhibition (IC50), engineered A549 cells, 24 hours, 13C6-KMV in media, average where tested multiple times) [nM]	SMILES
< 100	< 100		COc1ccc(Cl)cc1C(=O)N[C@H]1CCC[C@@H](n2c(-c3ccccc3F)nc3cnc(-c4nc[nH]n4)cc32)C1 [Example 1, 5-chloro-N-((1S,3R)-3-(2-(2-fluorophenyl)-6-(1H-1,2,4-triazol-3-yl)-1H-imidazo[4,5-c]pyridin-1-yl)cyclohexyl)-2-methoxybenzamide]
< 100	< 100		O=C1c2cc(Cl)ccc2OCN1[C@H]1CCC[C@@H](n2c(-c3ccccc3F)nc3cnc(-c4ncco4)cc32)[C@@H]1O [Example 215, 6-chloro-3-((1S,2S,3R)-3-(2-(2-fluorophenyl)-6-(oxazol-2-yl)-1H-imidazo[4,5-c]pyridin-1-yl)-2-hydroxycyclohexyl)-2,3-dihydro-4H-benzo[e][1,3]oxazin-4-one]
500 to 1000		> 1000	COc1ccc(Cl)cc1C(=O)N[C@@H]1CCCC[C@H](n2c(-c3ccccc3F)nc3cnc(-c4nc[nH]n4)cc32)[C@H]1O [Example 104, 5-chloro-N-((1R,2S,3S)-3-(2-(2-fluorophenyl)-6-(1H-1,2,4-triazol-3-yl)-1H-imidazo[4,5-c]pyridin-1-yl)-2-hydroxycycloheptyl)-2-methoxybenzamide]
< 100	< 100		O=C(N[C@H]1CCC[C@@H](n2c(-c3ccccc3F)nc3cnc(-c4nc[nH]n4)cc32)C1)c1cc(Cl)ccn1 [Example 7, 4-chloro-N-((1S,3R)-3-(2-(2-fluorophenyl)-6-(1H-1,2,4-triazol-3-yl)-1H-imidazo[4,5-c]pyridin-1-yl)cyclohexyl)picolinamide]
< 100	< 100		O=C1c2cc(F)ccc2CN1[C@H]1CCC[C@@H](n2c(-c3ccccc3F)nc3cnc(-c4nc[nH]n4)cc32)C1 [Example 169, 6-fluoro-2-((1S,3R)-3-(2-(2-fluorophenyl)-6-(1H-1,2,4-triazol-3-yl)-1H-imidazo[4,5-c]pyridin-1-yl)cyclohexyl)isoindolin-1-one]
< 100	500 to 1000		COc1ccc(C#N)cc1C(=O)N[C@H]1CCC[C@@H](n2c(-c3ccccc3F)nc3cnc(-c4nc[nH]n4)cc32)C1 [Example 33, 5-cyano-N-((1S,3R)-3-(2-(2-fluorophenyl)-6-(1H-1,2,4-triazol-3-yl)-1H-imidazo[4,5-c]pyridin-1-yl)cyclohexyl)-2-methoxybenzamide]
< 100	< 100		O=C(N[C@H]1CCC[C@@H](n2c(-c3ccccc3F)nc3ccc(-c4nc[nH]n4)c(F)c32)C1)c1cc(Cl)ccn1 [Example 230, 4-chloro-N-((1S,3R)-3-(7-fluoro-2-(2-fluorophenyl)-6-(1H-1,2,4-triazol-3-yl)-1H-benzo[d]imidazol-1-yl)cyclohexyl)picolinamide]
